The record followed here is patent US7868024B2, “Derivatives of N-(heteroaryl)-1-heteroaryl-1H-indole-2-carboxamides, preparation thereof and therapeutic use thereof” (Sanofi-Aventis, priority 2007, dated 2011).

One series deals with T1, TRPV1 receptor (Rattus norvegicus, UniProt O35433).
T1 construct: The neurons of the DRG naturally express the TRPV1 receptor; endogenous in cells; host or cells: primary culture of newborn rat dorsal root ganglion (DRG) neurons
In words: Inhibition of the current induced by capsaicin in rat DRG cells (whole-cell patch clamp). To be noted: DRG neuron; compound at 10 nM; capsaicin (1 μM) response; primary culture of newborn rat DRG neurons; read-out: % Inhibition by the DRG patch technique. It is filed as cell-based. Here is the method:
Test of the Inhibition of the Current Induced by Capsaicin with Regard to Rat DRGs
Primary Culture of Rat Dorsal Root Ganglion (DRG) Cells:
The neurons of the DRG naturally express the TRPV1 receptor.
Primary cultures of DRGs of newborn rats are prepared from 1-day-old rats. Briefly, after dissection, the ganglions are trypsinized and their cells dissociated mechanically by gentle trituration. […]
The measurement chambers (volume 800 μl) comprising the cell preparation are placed on the stage of an inverted microscope (Olympus IMT2) equipped with Hoffman optics (Modulation Contrast, New York) and are observed at a magnification of 400×. […] The overall currents (membrane potential set at −60 mV) are recorded with an Axopatch 1D amplifier (Axon Instruments, Foster City, Calif.) connected to a PC controlled by Pclamp8 software (Axon Instruments). The current plots are recorded on paper and simultaneously recorded digitally (sampling frequency 15 to 25 Hz) and acquired on the hard disk of the PC.
The application of a micromolar capsaicin solution produces an incoming cationic current with regard to the DRG cells (voltage set at −70 mV). […] The results are expressed as % of inhibition of the control capsaicin response.
Background: Patch clamp records ionic current or voltage across a cell membrane.

The melting point is the temperature, or range, at which the solid turns liquid. Broadly, the inhibition is the share of the control response that was lost under treatment.

T1 sequence (O35433 whole entry): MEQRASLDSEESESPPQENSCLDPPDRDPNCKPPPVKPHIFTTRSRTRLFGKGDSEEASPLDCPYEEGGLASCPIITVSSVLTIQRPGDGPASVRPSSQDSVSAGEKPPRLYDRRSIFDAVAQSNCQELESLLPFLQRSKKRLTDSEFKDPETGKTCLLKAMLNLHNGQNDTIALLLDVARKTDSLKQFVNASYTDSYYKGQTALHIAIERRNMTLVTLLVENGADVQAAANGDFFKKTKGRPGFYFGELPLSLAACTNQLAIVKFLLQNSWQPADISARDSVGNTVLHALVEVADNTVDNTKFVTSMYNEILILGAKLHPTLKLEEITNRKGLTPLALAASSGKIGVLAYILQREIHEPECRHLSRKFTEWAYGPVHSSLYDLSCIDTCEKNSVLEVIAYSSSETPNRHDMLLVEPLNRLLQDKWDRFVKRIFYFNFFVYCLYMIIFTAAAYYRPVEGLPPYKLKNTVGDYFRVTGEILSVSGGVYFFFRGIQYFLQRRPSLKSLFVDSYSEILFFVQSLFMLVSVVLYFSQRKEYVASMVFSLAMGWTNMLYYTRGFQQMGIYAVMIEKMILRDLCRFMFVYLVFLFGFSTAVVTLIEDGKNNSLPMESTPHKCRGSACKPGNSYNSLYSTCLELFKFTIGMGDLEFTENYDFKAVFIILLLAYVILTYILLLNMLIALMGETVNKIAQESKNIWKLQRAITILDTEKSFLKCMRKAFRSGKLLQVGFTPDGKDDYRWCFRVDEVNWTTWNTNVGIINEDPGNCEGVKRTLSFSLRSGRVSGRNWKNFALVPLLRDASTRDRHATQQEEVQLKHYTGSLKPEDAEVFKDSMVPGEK

Take `Cn1ccc2cc(NC(=O)c3cc4cc(F)ccc4n3-c3cccnc3)ccc21` [Compound No. 2, N-(1-methyl-1H-indol-5-yl)-5-fluoro-1-(pyridin-3-yl)-1H-indole-2-carboxamide]: the melting point was 203 to 205 °C.
Same read-out and setting: then `Cn1ccc2cc(NC(=O)c3cc4cc(F)ccc4n3-c3ccccn3)ccc21` [Compound No. 3, N-(1-Methyl-1H-indol-5-yl)-5-fluoro-1-(pyridin-2-yl)-1H-indole-2-carboxamide], with 210 to 211 °C; and `Cc1nc2cc(NC(=O)c3cc4cc(F)ccc4n3-c3ccncc3)ccc2n1C` [Compound No. 4, N-(1,2-Dimethyl-1H-benzimidazol-5-yl)-5-fluoro-1-(pyridin-4-yl)-1H-indole-2-carboxamide], with 226 to 229 °C.
On the same count and under the same terms, in the case of `Cc1nc2cc(NC(=O)c3cc4cc(F)ccc4n3-c3ccccn3)ccc2n1C` [Compound No. 5, N-(1,2-Dimethyl-1H-benzimidazol-5-yl)-5-fluoro-1-(pyridin-2-yl)-1H-indole-2-carboxamide] it was 260 to 261 °C; in that of `Cc1nc2cc(NC(=O)c3cc4cc(F)ccc4n3-c3cccnc3)ccc2n1C` [Compound No. 6, N-(1,2-Dimethyl-1H-benzimidazol-5-yl)-5-fluoro-1-(pyridin-3-yl)-1H-indole-2-carboxamide], 139 to 141 °C.
The same measure, in the same setting: then `Cc1ccnc(-n2c(C(=O)Nc3ccc4c(ccn4C)c3)cc3cc(F)ccc32)c1` [Compound No. 7, N-(1-methyl-1H-indol-5-yl)-5-fluoro-1-(4-methylpyridin-2-yl)-1H-indole-2-carboxamide], with 276 to 279 °C; and `Cc1ccnc(-n2c(C(=O)Nc3ccc4c(c3)nc(C)n4C)cc3cc(F)ccc32)c1` [Compound No. 8, N-(1,2-Dimethyl-1H-benzimidazol-5-yl)-5-fluoro-1-(4-methylpyridin-2-yl)-1H-indole-2-carboxamide], with 270 to 278 °C.
Turning to `Cc1cc(-n2c(C(=O)Nc3ccc4c(ccn4C)c3)cc3cc(F)ccc32)ccn1` [Compound No. 9, N-(1-Methyl-1H-indol-5-yl)-5-fluoro-1-(2-methylpyridin-4-yl)-1H-indole-2-carboxamide], the melting point is 213 to 216 °C.
As to `Cc1cc(C)nc(-n2c(C(=O)Nc3ccc4c(c3)nc(C)n4C)cc3cc(F)ccc32)c1` [Compound No. 10, N-(1,2-Dimethyl-1H-benzimidazol-5-yl)-5-fluoro-1-(4,6-dimethylpyridin-2-yl)-1H-indole-2-carboxamide], the inhibition at 0.01 µM at TRPV1 receptor was determined as 70%.
`Cc1cc(C)nc(-n2c(C(=O)Nc3ccc4c(ccn4C)c3)cc3cc(F)ccc32)c1` [Compound No. 11, N-(1-Methyl-1H-indol-5-yl)-5-fluoro-1-(4,6-dimethylpyridin-2-yl)-1H-indole-2-carboxamide]: the melting point lay in the range of 198 to 199 °C.
